{
  "source": "patent US20220079894A1",
  "about": "“STABLE PHARMACEUTICAL COMPOSITIONS” (priority 2020, published 2022)",
  "experiment": "NDMA content of Metformin Extended Release Tablets by LC-MS",
  "type": "physicochemical",
  "settings": "active substance of lot XP9004",
  "experimental": "Of particular concern is the level of NDMA in a class of anti-diabetic drugs including metformin hydrochloride tablets. Since these drugs are administered over a long period of time to patients, the amount of NDMA impurity in such products is of particular concern. It has been established that the 96 ng is the Acceptable Daily Intake Limit (ADI) for N-Nitrosodimethylamine (NDMA) in Metformin Hydrochloride tablets. The levels of NDMA in metformin hydrochloride tablets can be determined by analytical methods like Liquid Chromatography-Mass Spectrometry. Other drugs that can have similar issues are anti-diabetic drugs, a drug to treat Gastroesophageal Reflux Diseases (GERD) or an Angiotensis II receptor antagonist drug (ARBs).\nThis meant that the potential daily exposure of NDMA in the product was 160 ng/day",
  "note": "Where a name gives a salt, the structure may show the parent alone.",
  "data": [
    {"molecule": "CN(C)C(=N)N=C(N)N", "note": "[active substance, Metformin Hydrochloride]", "values": [
      {"measurement": "NDMA in the active substance used in the lot", "result": "no detectable NDMA"}
    ]}
  ]
}
